# Measurements: ChEMBL document CHEMBL3301361, “Experimental in vitro DMPK and physicochemical data on a set of publicly disclosed compounds”
# Assay: physchem
# Conditions: pH 7.4 buffer
row,SMILES,solubility thermodynamic [µM]
1,Cn1cc(C2=C(c3cccc(NCC(O)CO)c3)C(=O)NC2=O)c2cc(F)ccc21 (centres undefined),4.4
2,CNC(=O)[C@H](Cc1ccccc1)NC(=O)[C@H](CC(C)C)[C@H](CSc1ccccc1)C(=O)NO,11.2
3,O=C(c1ccc(F)cc1)C1CCN(C(=O)c2cc(F)cc(F)c2)CC1,6
4,O=C(c1ccc(F)cc1)C1CCN(C(=O)c2ccc(OC(F)(F)F)cc2)CC1,11.5
5,O=C(c1ccc(F)cc1)C1CCN(C(=O)c2cccc(OC(F)(F)F)c2)CC1,11
6,Cc1cccc2c3cc(NC(=O)N4CCOCC4)ccc3n(C(C)C)c12,5.1
7,CN(C)S(=O)(=O)n1c2ccccc2c2cc(NC(=O)CCc3ccncc3)ccc21,9.5
8,CN(C)CCSc1nc2ccc(Br)cc2cc1-c1ccccc1,9.5
9,CN(C)CCCN(C)c1nc2cc(Cl)c(Cl)cc2nc1/C=C/c1ccccc1,5.8
10,COc1cc2ncnc(Nc3ccc(Br)cc3F)c2cc1OC,6.8
11,COc1ccc(Cl)cc1NC(=O)c1cnccn1,12
12,Cc1ccc(C(=O)N2CCC(C(=O)c3c(C)cc(C)cc3C)CC2)cc1,9.3
13,O=C(NCCSCc1c(F)cccc1Cl)Nc1ccccc1,5.1
14,COc1ccc(NC(=O)c2cccn(CC=C(C)C)c2=O)cc1,7.2
15,Cc1ccc(-c2nnc(-c3ccccc3)o2)cc1,6.2
16,c1ccc(CSc2nnc(-c3ccco3)c(-c3ccco3)n2)cc1,5.2
17,CCN1N=C(c2ccccc2)Cn2c1nc1ccccc12,6.9
18,COC1=C(c2ccccc2)C(=O)c2ccccc2C1=O,8.1
19,O=S(=O)(Cc1cc(-c2ccccc2)no1)c1ccccc1,6.6
20,Oc1cc(-c2ccccc2)nc2ccc(Cl)cc12,5.9
21,O=C(NC1CCCC1)C1CCCN(S(=O)(=O)c2cccc3cccnc23)C1 (centres undefined),8.7
22,CCOc1ccccc1C(=O)N1CCC(C(=O)c2ccc(F)cc2)CC1,5.8
23,O=C(c1ccc(F)cc1)C1CCN(C(=O)Nc2ccc(F)cc2)CC1,4.5
24,Cc1ccc(C)c(N(C)c2ccnc(Nc3cc(N4CCOCC4)cc(N4CCOCC4)c3)n2)c1,5.9

row,SMILES,solubility thermodynamic [µM]
1,COc1cc(N2CCNC(=O)C2)ccc1Nc1ncc(Cl)c(-c2cnc3ccccn23)n1,4.9
2,COc1cc(N2CCN(CC(=O)N(C)C)CC2)ccc1Nc1ncc(Cl)c(-c2cnc3ccccn23)n1,5
3,N#Cc1c(C2CCCNC2)cc(-c2c(O)cccc2OCC2CC2)nc1N (centres undefined),8.1
4,O=C(Nc1cccc(O)c1)c1ccc(OCCCN2CCCC2)cc1OCc1ccc(F)cc1,5
5,C[C@@H](c1ccc(-c2ccc(F)cc2F)cc1)N1CC[C@@](CCO)(c2ccc(F)cc2)OC1=O,5.2
6,C=CCN(C(=O)NCc1cccc(C)c1)C1CCN(CCC(c2ccccc2)c2ccccc2)CC1,9.1
7,COc1cc2ncnc(Nc3cc(NC(=O)c4ccccc4)ccc3Cl)c2cc1OC,10
8,Cc1cc(C)c(N2C(=O)CC(Sc3ccccc3N)C2=O)c(C)c1 (centres undefined),9.3
9,COc1cccc(NC(=O)Cn2cc(Nc3ncnc4cc(OC)c(OC)cc34)cn2)c1,4.4
10,CCn1cc(NC(=O)Cc2ccc(Oc3ccnc4cc(OC)c(OC)cc34)cc2)cn1,10.7
11,O=C(Nc1ccccc1)c1ccc2cccc(O)c2n1,6.6
12,CN1CCC(Oc2cccc3ncnc(Nc4ccc(OCc5cscn5)c(Cl)c4)c23)CC1,4.9
13,Cc1nc(-c2ccc(CN3CCC(N(C)C(=O)Cc4ccc(-n5cnnn5)cc4)CC3)cc2)no1,10.2
14,CN(C(=O)Cc1ccc(-n2cnnn2)cc1)C1CCN(Cc2nc3c(s2)CCCC3)CC1,9.8
15,CN(C(=O)Cc1ccc(-n2cnnn2)cc1)[C@H]1CCN(Cc2ccc(C(F)(F)F)cc2)C[C@H]1F,8.1
16,CN(C(=O)Cc1ccc(S(C)(=O)=O)cc1)[C@@H]1CCN(Cc2nc3ccccc3s2)C[C@@H]1F,9.1
17,CCn1cc(NC(=O)Cc2ccc(Oc3ccnc4ccc(OC)cc34)cc2OC)cn1,7.1
18,CCc1cc(NC(=O)Cc2ccc(Oc3ccnc4cc(OC)ccc34)cc2OC)no1,4.2
19,CCc1c[nH]nc1NC(=O)Cc1ccc(Oc2ccnc3cc(OC)ccc23)cc1OC,7.4
20,CCc1cc(NC(=O)Cc2ccc(Oc3ccnc4cc(OC)c(OC)cc34)cc2OC)[nH]n1,11
21,CCc1cc(NC(=O)Cc2ccc(Oc3ccnc4cc(OC)ccc34)cc2OC)n[nH]1,8.5
22,COc1cc(Oc2ccnc3cc(OC)c(OC)cc23)ccc1CC(=O)Nc1cn(C)nc1C,8.9
23,COc1ccc2c(Oc3ccc(CC(=O)Nc4cnn(C)c4C)c(OC)c3)ccnc2c1,10.7
24,COC(=O)N[C@H](C(=O)N1CCC[C@H]1c1nc(-c2ccc(-c3ccc(-c4c[nH]c([C@@H]5CCCN5C(=O)[C@@H](NC(=O)OC)C(C)C)n4)cc3)cc2)c[nH]1)C(C)C,10.2

row,SMILES,solubility thermodynamic [µM]
1,CS(=O)(=O)Cc1cc(N2CCOCC2)nc(-c2ccc3[nH]ccc3c2)n1,9.3
2,CS(=O)(=O)Cc1cc(N2CCOCC2)nc(-c2cccc3[nH]ccc23)n1,12.9
3,CS(=O)(=O)Cc1cc(N2CCOCC2)nc(-c2ccc(NS(C)(=O)=O)cc2)n1,11.2
4,CC(C)Oc1cc(O[C@@H](C)Cc2ccccc2)cc(C(=O)Nc2ccc(C(=O)O)cn2)c1,9.1
5,COc1cc2ncnc(Nc3cccc(Cl)c3F)c2cc1CN1CCCC[C@@H]1C(N)=O,10
6,COc1cc2ncnc(Nc3ccc(F)c(Cl)c3)c2cc1CN1CCC[C@@H]1C(N)=O,5.1
7,CC(C)(C)OC(=O)N1CCN(c2cnc(OCc3ccc(S(C)(=O)=O)cc3)cn2)CC1,4.7
8,C[C@@H]1CN(C(=O)OC(C)(C)C)C[C@H](C)N1c1ncc(OCc2ccc(S(C)(=O)=O)cc2)cn1,4.1
9,CC(C)(C)OC(=O)N1C[C@@H]2CC[C@H]1CN2c1ncc(OCc2ccc(S(C)(=O)=O)cc2)cn1,7.1
10,C[C@@H]1CN(C(=O)OC(C)(C)C)CCN1c1ncc(OCC2CCN(S(C)(=O)=O)CC2)cn1,5
11,COc1cc(CCc2cc(Nc3ccnc(NCc4cc(C)on4)n3)n[nH]2)cc(OC)c1,4.3
12,CS(=O)(=O)C1(c2cc(N3CCOCC3)nc(-c3cccc(N)c3)n2)CC1,13.2
13,Oc1cc(-c2ccc3c(c2)OCO3)nc2ccccc12,6.2
14,N#Cc1ccc(CN2CCN(c3ccc4nnc(C(F)(F)F)n4n3)CC2)cc1,11.5
15,Cc1cc(C)cc(-c2[nH]c3sc(C(C)(C)C(=O)N4C5CCC4CC5)cc3c2CCN2CCC(N3CCOCC3)CC2)c1,7.2
16,OC1CCN(CCOc2n[nH]c3ncnc(Nc4ccc(OCc5cccc(F)c5)c(Cl)c4)c23)CC1,4.5
17,CNC(=O)[C@@H](C)Oc1cccc2ncnc(Nc3ccc4c(cnn4Cc4ccccn4)c3)c12,6
18,C[C@H](Oc1cccc2ncnc(Nc3ccc4c(cnn4Cc4cccc(F)c4)c3)c12)C(=O)N(C)C,8.1
19,C[C@@H](Oc1cccc2ncnc(Nc3ccc4c(cnn4Cc4cscn4)c3)c12)C(N)=O,8.7
20,COCCN(C)C(=O)[C@@H](C)Oc1cccc2ncnc(Nc3ccc(Oc4ccc(C)nc4)c(C)c3)c12,11.2
21,CNC(=O)c1ccc(CN2CCC(c3ccc(C(=O)Nc4ccccc4N)cc3)CC2)cc1,4.8
22,Cc1ccc(Oc2ccc(Nc3ncnc4cccc(O[C@H](C)C(=O)NCCO)c34)cc2C)cn1,4.2
23,CO[C@]1(c2cc(F)cc(S(=O)(=O)c3ccc(/C(C)=N/O)cc3)c2)CCO[C@@H](C)C1,4.7
24,CCc1cc(OCc2ccc(-c3ccccc3-c3nnn[nH]3)cc2)c2ccccc2n1,7.8

row,SMILES,solubility thermodynamic [µM]
1,O=C(N1CCC(c2ccncc2)CC1)N1CCN(S(=O)(=O)c2ccc(Cl)cc2)CC1,8.7
2,O=C(N[C@@H](Cc1ccccc1)C(=O)N1CCC(O)CC1)c1cc2cc(Cl)ccc2[nH]1,5.1
3,CC(C)n1c2ccccc2c2c(F)c(NC(=O)N3CCOCC3)c(F)cc21,4.6
4,COc1cc2c(Nc3c(Cl)ccc4c3OCO4)ncnc2cc1OCc1ccnc(C#N)c1,10.2
5,COc1ccc(I)c(Sc2nc3c(N)ncnc3n2CCNCC(C)(C)C)c1,4
6,COc1cc(Nc2ncnc3[nH]nc(OCCN4CCC(O)CC4)c23)ccc1OCc1cccc(F)c1,5.6
7,Nc1ccccc1NC(=O)c1ccc(C2CCN(Cc3ccc(C(=O)NC4CC4)cc3)CC2)cc1,6.6
8,CCCCC(CC)CNC(=O)c1ccc2c(c1)c(Cc1ccc(C(=O)NS(=O)(=O)c3ccccc3C)cc1OC)cn2C (centres undefined),6.5
9,C[C@@H](CN(C)C(=O)CO)Oc1cccc2ncnc(Nc3ccc(OCc4ccccn4)c(Cl)c3)c12,8.9
10,CN(C)C(=O)COc1cccc2ncnc(Nc3ccc4c(cnn4Cc4ccccn4)c3)c12,10.7
11,CC(C)Oc1cc(OCCN2CCOCC2)cc2ncnc(Nc3c(Cl)ccc4c3OCO4)c12,4.4
12,Cc1cc(Nc2ncnc3[nH]nc(OCCN4CCC(O)CC4)c23)ccc1OCc1cccc(F)c1,6.8
13,CC(C)Oc1cc(O[C@H](C)Cc2ccccc2)cc(C(=O)Nc2ccc(C(=O)O)cn2)c1,8.5
14,COc1ccccc1Oc1coc2cc(O)ccc2c1=O,12.9
15,CCOC(=O)c1nn(-c2ccccc2)c(=O)c2c(N)scc12,6.2
16,Cc1ncc(-c2ccnc(Nc3ccc(N4CCN(S(C)(=O)=O)CC4)cc3)n2)n1C(C)C,8.9
17,COc1cc2ncnc(Nc3ccc(C)c(O)c3)c2cc1OC,4.4
18,CS(=O)(=O)Nc1cccc(Nc2nccc(Nc3c(Cl)ccc4c3OCO4)n2)c1,7.2
19,NC(=O)Nc1sc(-c2ccc(OC(F)(F)F)cc2)cc1C(N)=O,11
20,COc1cc(Nc2cc(Oc3ccc(C)nc3C)ccn2)cc(OC)c1OC,6.8
21,CC(=O)N(C1=C(NCCO)C(=O)c2ccccc2C1=O)c1cccc(Br)c1,11.7
22,NS(=O)(=O)c1ccc(Nc2nccc(-c3cnc4ccccn34)n2)cc1,6.5
